According to publication PMC12179625, “Development of an LC-MS/MS method for quantification of colistin and colistin methanesulfonate in human plasma and its application to stability studies and therapeutic drug monitoring” (Journal of Mass Spectrometry and Advances in the Clinical …, 2025):
Where two headings read alike, the source gives them in different places. Blank lines part the entries; values can stand above or below the molecule they belong to. Where a SMILES comes first, the peptide text is derived from it. Bridges are numbered along the chain shown (N, C = ends). [ ]: non-standard residue; d: D form. The star is where a group is joined. Heptanoyl(6-Me) = CC(C)CCCCC(=O)*; X1 = CC[C@H](C)CCCCC(=O)*; Dab = NCC[C@H](N)C(=O)O

Assays:
[1] = Stability of colistin A and colistin B in plasma samples; assay type: in vitro ADME; conditions: spiked human plasma, accuracy vs theoretical concentration, LC-MS/MS, mean ± SD, n = 3; for −80 °C freeze–thaw 3 times: three freeze–thaw cycles −80 °C to room temperature
Experimental: The calibration standard samples and QC samples were both obtained by diluting the corresponding working solution with blank plasma at a ratio of 1:19. The concentrations of the calibration standard samples were 0.10, 0.25, 0.50, 1.0, 2.5, 5.0, 8.0 and 10 μg/mL while the concentrations of the QC samples were 0.10 (LLOQ), 0.30 (LQC), 2.0 (MQC), 7.5 (HQC), and 30 (DQC) μg/mL.
(§1) The SPE column was activated by using 1 mL of methanol followed by 2 mL of ultrapure water. Subsequently, 200 μL of either calibration standard samples, QC samples, or patient plasma samples were mixed with 100 μL of IS working solution and 700 μL of 1.43 % ammonia, This step is to ensure that the solution is in a non-acidic environment. This mixture was thoroughly vortexed to ensure homogeneity. The mixed samples were then loaded onto the Welch BRP SPE columns. After sequentially washing the column with a total of 4 mL of 1 % ammonia, the analytes were eluted twice with 200 μL of […] (30:70, v/v) containing 4 % formic acid. Ultimately, 400 μL total eluate was collected and analyzed by LC-MS/MS.
(§2) This study investigated the stability of colistin A and colistin B during the assay process, including the stability of plasma samples at room temperature for 24 h, the stability through three cycles of repeated freeze–thaw from −80 °C to room temperature, the stability during storage at −80 °C for three months, and the autosampler stability of processed samples at 4°C for 24 h. Three parallel samples were prepared for each condition. If the accuracy of the samples under storage conditions is within 85 % to 115 %, the stability is considered acceptable.

[2] = Autosampler stability of processed colistin samples; assay type: physicochemical; conditions: autosampler 4 °C, accuracy, LC-MS/MS, mean ± SD, n = 3
Experimental: as §1, §2

[3] = Pharmacokinetics / TDM of CMS and colistin in patient plasma; assay type: in vivo, human; conditions: for AUC(0-t): 150 mg CBA
Experimental: as §1
The concentration of CMS was determined by calculating the difference between the concentration of total colistin after complete in vitro conversion and the concentration of free colistin in vivo. In vitro conversion of CMS was performed by sulfuric acid hydrolysis. Samples were processed as follows: 25 μL of 1 mol/L H2SO4 was added to a tube containing 200 μL of patient plasma sample and 100 μL of IS working solution, acidified at room temperature on a shaker for 1 h, and then 50 μL of 1 mol/L NaOH was added to neutralize the acid hydrolysis to maintain the pH of the final solution in the range of 7.0–7.5. After vortex mixing, 625 μL of 1.43 % ammonia solution was added and mixed thoroughly. After this conversion process, the concentration of total colistin was determined as free colistin described above.
The study included three patients infected with carbapenem-resistant Gram-negative bacteria. The patients provided informed consent, and the research project was carried out following the regulations of the Ethics Committee (Ethical approval number: TJ-IRB20220737) of Tongji Medical College, Huazhong University of Science and Technology. The physician prescribed a weight-based dosing regimen with a 300 mg loading dose of colistin base activity (CBA) and a maintenance dose of 150 mg CBA. The sample collection for this session took place during the administration of the fourth dose. […] Blood samples were collected by EDTA tubes and placed on ice and transported to the lab within 2 h. The samples were centrifuged at a speed of 1000 g for 10 min at 4°C and the supernatant was stored at −20 °C for subsequent sample preparation.
Pharmacokinetic parameters, including area under the concentration–time curve from 0 to the last measurable time point (AUC0-t) and from 0 to infinity (AUC0-∞), peak concentration (Cmax), time to reach peak concentration (Tmax), elimination half-life (t1/2), apparent volume of distribution (V), apparent total clearance (CL), and mean residence time (MRT0-∞) were calculated using DAS 2.0 (Shanghai University of TCM, China).

[4] = cited from earlier work
Experimental: The concentration–time curves and PK parameters of colistin and CMS are shown in Fig. 6 and Table 5, respectively. A total of three patients treated with CMS for carbapenem-resistant Gram-negative bacterial infections were included in this study (Ethical approval number: TJ-IRB20220737). The measured trough concentrations of colistin (Cmin) ranged from 0.97 μg/mL to 2.84 μ g/mL, and the average Cmin was 1.61 ± 1.06 μ g/mL.

[5] = SPE eluate (acetonitrile 30:70 with 4 % formic acid) of HQC 7.5 μg/mL plasma
[6] = SPE eluate (acetonitrile 30:70 with 4 % formic acid) of LQC 0.30 μg/mL plasma
[7] = CMS infusion, 150 mg CBA maintenance, fourth dose, plasma, LC-MS/MS, patient 1
[8] = CMS infusion, 150 mg CBA maintenance, fourth dose, plasma, LC-MS/MS, patient 2
[9] = CMS infusion, 150 mg CBA maintenance, fourth dose, plasma, LC-MS/MS, patient 3

Molecule: CC[C@H](C)CCCCC(=O)N[C@@H](CCN)C(=O)N[C@H](C(=O)N[C@@H](CCN)C(=O)N[C@H]1CCNC(=O)[C@H]([C@@H](C)O)NC(=O)[C@H](CCN)NC(=O)[C@H](CCN)NC(=O)[C@H](CC(C)C)NC(=O)[C@@H](CC(C)C)NC(=O)[C@H](CCN)NC1=O)[C@@H](C)O [Colistin A, colistin A] (X1-[Dab]T[Dab][Dab][Dab][dL]L[Dab][Dab]T; lactam 4-C)
Frozen at −80 °C for 3 months ([1]; HQC 7.5 μg/mL): 101.24 ± 1.46% | Room temperature 24 h ([1]; HQC 7.5 μg/mL): 91.48 ± 3.06% | −80 °C freeze–thaw 3 times ([1]; HQC 7.5 μg/mL): 93.04 ± 1.97% | Frozen at −80 °C for 3 months ([1]; LQC 0.30 μg/mL): 98.31 ± 5.04% | Room temperature 24 h ([1]; LQC 0.30 μg/mL): 104.77 ± 4.59% | −80 °C freeze–thaw 3 times ([1]; LQC 0.30 μg/mL): 106.19 ± 2.48% | Processed sample In the sampler at 4 °C for 24 h [2, 5]: 100.74 ± 4.06% | Processed sample In the sampler at 4 °C for 24 h [2, 6]: 102.44 ± 1.43%

Molecule: CC(C)CCCCC(=O)N[C@@H](CCN)C(=O)N[C@H](C(=O)N[C@@H](CCN)C(=O)N[C@H]1CCNC(=O)[C@H]([C@@H](C)O)NC(=O)[C@H](CCN)NC(=O)[C@H](CCN)NC(=O)[C@H](CC(C)C)NC(=O)[C@@H](CC(C)C)NC(=O)[C@H](CCN)NC1=O)[C@@H](C)O [Colistin B, colistin B] ({Heptanoyl(6-Me)}-[Dab]T[Dab][Dab][Dab][dL]L[Dab][Dab]T; lactam 4-C)
Frozen at −80 °C for 3 months ([1]; HQC 7.5 μg/mL): 98.76 ± 4.29% | Room temperature 24 h ([1]; HQC 7.5 μg/mL): 99.39 ± 1.70% | −80 °C freeze–thaw 3 times ([1]; HQC 7.5 μg/mL): 99.13 ± 6.46% | Frozen at −80 °C for 3 months ([1]; LQC 0.30 μg/mL): 109.29 ± 3.71% | Room temperature 24 h ([1]; LQC 0.30 μg/mL): 110.01 ± 3.95% | −80 °C freeze–thaw 3 times ([1]; LQC 0.30 μg/mL): 110.17 ± 4.65% | Processed sample In the sampler at 4 °C for 24 h [2, 5]: 106.46 ± 6.48% | Processed sample In the sampler at 4 °C for 24 h [2, 6]: 108.54 ± 3.07%

Molecule: CC[C@H](C)CCCCC(=O)N[C@@H](CCN)C(=O)N[C@H](C(=O)N[C@@H](CCN)C(=O)N[C@H]1CCNC(=O)[C@H]([C@@H](C)O)NC(=O)[C@H](CCN)NC(=O)[C@H](CCN)NC(=O)[C@H](CC(C)C)NC(=O)[C@@H](CC(C)C)NC(=O)[C@H](CCN)NC1=O)[C@@H](C)O [Colistin, colistin] (X1-[Dab]T[Dab][Dab][Dab][dL]L[Dab][Dab]T; lactam 4-C)
AUC0-12h [3, 7]: 18730 ng·h/mL | AUC0-24h [3, 7]: 37480 ng·h/mL | AUC0-∞ [3, 7]: 31440 ng·h/mL | CL (apparent total clearance) [3, 7]: 4.77 L/h | Cmax [3, 7]: 2080 ng/mL | Cmin [3, 7]: 970 ng/mL | Css [3, 7]: 1560 ng/mL | MRT0-∞ (mean residence time) [3, 7]: 13.34 h | Tmax [3, 7]: 2.00 h | Vz (apparent volume of distribution) [3, 7]: 62.61 L | t1/2 (elimination half-life) [3, 7]: 9.09 h | AUC0-12h [3, 8]: 43030 ng·h/mL | AUC0-24h [3, 8]: 85740 ng·h/mL | AUC0-∞ [3, 8]: 105170 ng·h/mL | CL (apparent total clearance) [3, 8]: 1.43 L/h | Cmax [3, 8]: 4520 ng/mL | Cmin [3, 8]: 2840 ng/mL | Css [3, 8]: 3570 ng/mL | MRT0-∞ (mean residence time) [3, 8]: 22.04 h | Tmax [3, 8]: 2.00 h | Vz (apparent volume of distribution) [3, 8]: 30.93 L | t1/2 (elimination half-life) [3, 8]: 15.03 h | AUC0-12h [3, 9]: 18490 ng·h/mL | AUC0-24h [3, 9]: 37080 ng·h/mL | AUC0-∞ [3, 9]: 25180 ng·h/mL | CL (apparent total clearance) [3, 9]: 5.96 L/h | Cmax [3, 9]: 2450 ng/mL | Cmin [3, 9]: 1040 ng/mL | Css [3, 9]: 1550 ng/mL | MRT0-∞ (mean residence time) [3, 9]: 10.86 h | Tmax [3, 9]: 3.00 h | Vz (apparent volume of distribution) [3, 9]: 49.04 L | t1/2 (elimination half-life) [3, 9]: 5.71 h | AUC0-24h ([3]; first of the three patients): 37430 ng·h/mL | Css,avg ([3]; first of the three patients): 1560 ng/mL | AUC(0-t) ([3]; human, in vivo, iv, patients on CMS infusion (300 mg CBA loading, 150 mg CBA maintenance), fourth dose, plasma, SPE LC-MS/MS, DAS 2.0, mean ± SD of 3 patients, SD, read-out: AUC0-12h): 26800 ± 14100 ng·h/mL | AUC(0-t) ([3]; human, in vivo, iv, patients on CMS infusion (300 mg CBA loading, 150 mg CBA maintenance), fourth dose, plasma, SPE LC-MS/MS, DAS 2.0, mean ± SD of 3 patients, SD, read-out: AUC0-24h): 53400 ± 28000 ng·h/mL | AUC(0-inf) ([3]; human, in vivo, iv, patients on CMS infusion (300 mg CBA loading, 150 mg CBA maintenance), fourth dose, plasma, SPE LC-MS/MS, DAS 2.0, mean ± SD of 3 patients, SD): 53900 ± 44500 ng·h/mL | clearance ([3]; human, in vivo, iv, patients on CMS infusion (300 mg CBA loading, 150 mg CBA maintenance), fourth dose, plasma, SPE LC-MS/MS, DAS 2.0, mean ± SD of 3 patients, SD, read-out: CL (apparent total clearance) (converted)): 67.5 mL/min | MRT ([3]; human, in vivo, iv, patients on CMS infusion (300 mg CBA loading, 150 mg CBA maintenance), fourth dose, plasma, SPE LC-MS/MS, DAS 2.0, mean ± SD of 3 patients, SD, read-out: MRT0-∞ (mean residence time)): 15.4 ± 5.87 h | Vd ([3]; human, in vivo, iv, patients on CMS infusion (300 mg CBA loading, 150 mg CBA maintenance), fourth dose, plasma, SPE LC-MS/MS, DAS 2.0, mean ± SD of 3 patients, SD, read-out: Vz (apparent volume of distribution)): 47.5 ± 15.9 L | half-life ([3]; human, in vivo, iv, patients on CMS infusion (300 mg CBA loading, 150 mg CBA maintenance), fourth dose, plasma, SPE LC-MS/MS, DAS 2.0, mean ± SD of 3 patients, SD, read-out: t1/2 (elimination half-life) (converted)): 9.94 ± 4.72 h | Cmax ([3]; human, in vivo, iv, patients on CMS infusion (300 mg CBA loading, 150 mg CBA maintenance), fourth dose, plasma, SPE LC-MS/MS, mean ± SD of 3 patients, SD, read-out: Cmax): 3010 ± 1320 ng/mL | Tmax ([3]; human, in vivo, iv, patients on CMS infusion (300 mg CBA loading, 150 mg CBA maintenance), fourth dose, plasma, SPE LC-MS/MS, mean ± SD of 3 patients, SD, read-out: Tmax): 2.33 ± 0.58 h | time at which peak concentration (Cmax) was reached ([3]; in words, three patients, CMS infusion (1 h)): at 1-hour post-infusion | Css ([3]; patients on CMS infusion (300 mg CBA loading, 150 mg CBA maintenance), fourth dose, plasma, SPE LC-MS/MS, DAS 2.0, mean ± SD of 3 patients, SD): 2230 ± 1170 ng/mL | Cmin ([3]; patients on CMS infusion (300 mg CBA loading, 150 mg CBA maintenance), fourth dose, plasma, SPE LC-MS/MS, mean ± SD of 3 patients, SD): 1610 ± 1060 ng/mL | AUC0-24h ([3]; second of the three patients): 86050 ng·h/mL | AUC0-24h ([3]; third of the three patients): 36980 ng·h/mL | Tmax ([4]; healthy subjects): 2 h | half-life ([4]; healthy volunteers, ref Couet W et al., 31): 3.0 ± 0.6 h

CL (apparent total clearance) ([3]; human, in vivo, iv, SD): 6.87 ± 1.38 L/h | Tmax ([3]; human, in vivo, iv, SD): 1.33 ± 0.58 h | Vz (apparent volume of distribution) ([3]; human, in vivo, iv, SD): 14.11 ± 2.39 L | t1/2 (elimination half-life) ([3]; human, in vivo, iv, SD): 1.50 ± 0.57 h
Molecule: colistin methanesulfonate [CMS]
Tmax ([4]; human, in vivo): 1 h | half-life ([4]; human, in vivo): 2.0 ± 0.12 h
